The target of one test is RPA (Homo sapiens, UniProt P27694). Briefly: Helix destabilization assay. It is filed as biochemical. The conditions noted are these: EMSA, dsDNA probe, 200 µM of each compound. (In general: A gel shift assay detects complexes by their altered migration in electrophoresis.)
In a further test the target is DBD-F^MBP (Homo sapiens, UniProt P27694). It is filed as binding. The conditions noted are these: competitive titration, fluorescence anisotropy. On the technique in general: In fluorescence polarisation assays a small probe gives low polarisation when free and higher when bound to something large.
Sequence of DBD-F^MBP (P27694 1-168): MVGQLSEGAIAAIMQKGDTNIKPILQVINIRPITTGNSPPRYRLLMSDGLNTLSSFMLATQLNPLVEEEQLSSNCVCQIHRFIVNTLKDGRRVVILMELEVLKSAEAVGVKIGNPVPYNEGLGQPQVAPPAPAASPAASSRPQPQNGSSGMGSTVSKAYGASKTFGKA

Sequence of RPA (P27694 whole entry): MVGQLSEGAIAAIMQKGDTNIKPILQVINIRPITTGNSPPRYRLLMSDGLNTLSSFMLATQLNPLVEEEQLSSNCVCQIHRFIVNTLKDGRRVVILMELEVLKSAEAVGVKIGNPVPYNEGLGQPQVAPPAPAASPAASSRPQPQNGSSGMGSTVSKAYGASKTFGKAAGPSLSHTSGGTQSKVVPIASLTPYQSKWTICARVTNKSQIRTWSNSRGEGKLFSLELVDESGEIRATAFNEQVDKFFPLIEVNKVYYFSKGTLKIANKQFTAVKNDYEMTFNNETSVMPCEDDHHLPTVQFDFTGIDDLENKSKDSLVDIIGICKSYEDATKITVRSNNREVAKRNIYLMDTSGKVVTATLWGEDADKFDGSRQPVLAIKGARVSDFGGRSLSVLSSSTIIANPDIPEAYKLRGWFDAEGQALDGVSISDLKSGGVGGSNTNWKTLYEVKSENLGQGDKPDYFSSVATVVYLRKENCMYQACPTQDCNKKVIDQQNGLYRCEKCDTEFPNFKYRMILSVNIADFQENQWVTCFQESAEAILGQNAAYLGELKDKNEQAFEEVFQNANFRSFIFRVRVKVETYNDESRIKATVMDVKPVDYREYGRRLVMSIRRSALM
Sequence of RPA (P15927 whole entry partner): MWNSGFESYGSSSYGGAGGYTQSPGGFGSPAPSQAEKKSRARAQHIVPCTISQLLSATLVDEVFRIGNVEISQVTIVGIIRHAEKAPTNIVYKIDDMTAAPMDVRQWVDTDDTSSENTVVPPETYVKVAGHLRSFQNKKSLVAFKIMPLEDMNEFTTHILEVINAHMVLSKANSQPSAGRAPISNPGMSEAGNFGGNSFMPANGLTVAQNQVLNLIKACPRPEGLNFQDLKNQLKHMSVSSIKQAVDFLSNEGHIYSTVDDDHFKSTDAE
Sequence of RPA (P35244 whole entry partner): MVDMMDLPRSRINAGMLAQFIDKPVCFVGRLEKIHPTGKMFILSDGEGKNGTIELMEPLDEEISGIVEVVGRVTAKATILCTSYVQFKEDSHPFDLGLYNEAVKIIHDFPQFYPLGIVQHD

As for `O=C(O)C1CCC(C(=O)O)CC1` (stereo not shown) [1,4-cyclohexanedicarboxylic acid], the “inhibition of helix destabilization by RPA” value on RPA is listed as “no effect”. Besides, the “competition with X-rhodamine-labelled p53TAD2 for binding to DBD-F^MBP” value on DBD-F^MBP was “no evidence of binding”.
As for `O=C(O)CCC(=O)O` [succinic acid], the “inhibition of helix destabilization by RPA” value at RPA is “no effect”. The “competition with X-rhodamine-labelled p53TAD2 for binding to DBD-F^MBP” value at DBD-F^MBP was “no evidence of binding”.

The values above are taken from paper PMC3561959 (Nucleic Acids Research, 2012).
